Assay results as given in publication PMC7037862, “Tricyclic Nucleobase Analogs and Their Ribosides as Substrates and Inhibitors of Purine-Nucleoside Phosphorylases III. Aminopurine Derivatives” (Molecules, 2020).

T1: calf PNP (Bos taurus, UniProt P55859)
T1 construct: made in house; host or cells: E. coli
T1 sequence (P55859 1-289): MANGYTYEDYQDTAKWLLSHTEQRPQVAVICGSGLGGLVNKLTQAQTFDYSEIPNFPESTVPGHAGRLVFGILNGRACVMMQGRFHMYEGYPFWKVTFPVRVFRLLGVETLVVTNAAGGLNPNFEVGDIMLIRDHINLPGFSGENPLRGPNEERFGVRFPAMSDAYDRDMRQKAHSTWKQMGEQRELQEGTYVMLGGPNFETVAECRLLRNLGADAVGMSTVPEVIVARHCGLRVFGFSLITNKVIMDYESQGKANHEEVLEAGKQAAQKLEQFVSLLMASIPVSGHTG


Tests used:
[1] = Ionization constants (pKa), determined spectrophotometrically; type: physicochemical; conditions: phosphate and/or acetate buffers, protonation, read-out: pKa (protonation)
Experimental: Fluorescence spectra were measured on a Varian Eclipse instrument (Varian Corp., Palo Alto, CA, USA), and UV absorption kinetic experiments were performed on a Cary 5000 (Varian Corp., Palo Alto, CA, USA) thermostated spectrophotometer. Fluorescence yields were determined relative to tryptophan (0.15) or 1,N^6-ethenoadenosine in water (0.56, see ref. [2]). Emission spectra were measured in semi-micro cuvettes, pathlength 4 mm, to diminish the inner-filter effect. Typical spectral resolution was 2.5 nm. The ionization constants (pKa values) were determined spectrophotometrically using 20–50 mM phosphate and/or acetate buffers.

E. coli PNP [2] = target: T2, E. coli PNP (Escherichia coli, UniProt P0ABP8); experiment: Inhibition of phosphorolysis of purine nucleosides catalyzed by E. coli PNP; type: biochemical; conditions: competitive inhibition of phosphorolysis of purine nucleosides; read-out: inhibition constant, Ki
T2 construct: made in house; host or cells: E. coli
T2 sequence (P0ABP8 2-239): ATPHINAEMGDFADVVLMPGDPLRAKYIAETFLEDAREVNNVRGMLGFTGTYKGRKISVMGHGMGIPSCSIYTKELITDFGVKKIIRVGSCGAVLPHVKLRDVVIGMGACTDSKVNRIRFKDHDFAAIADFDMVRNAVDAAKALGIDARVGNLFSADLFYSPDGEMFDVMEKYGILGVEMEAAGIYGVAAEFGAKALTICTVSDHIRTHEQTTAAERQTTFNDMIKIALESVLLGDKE
Experimental: (§1) Etheno-tubercidine (6) is therefore a good candidate to observe enzyme-ligand complexes by spectral methods, as shown below. No inhibition of the calf PNP was observed, at least in moderate concentrations (up to 50 μM) that we used.
(§2) Enzymatic ribosylation reactions were carried out in 1 mL cuvettes (pathlength 4 mm) in ~50 mM HEPES buffer, pH 7.3, using 0.5 mM R1P as a ribose source. Reactions were followed fluorimetrically (see Section 2.4). On a larger scale (2–4 mg), the reactions were run in Eppendorf tubes, volume 2–3 mL, using either R1P (3–10 mM) or 7-methylguanosine as ribose sources. Products were purified by semi-preparative HPLC, concentrated and the final solutions kept frozen. Their structure has been confirmed by NMR (see Section 2.4 and Supplementary Materials) and by MS: comp. 3: m/z = 292.10385, comp. 4: m/z = 292.10400, comp. 5: m/z = 292.10398, calculated for C12H13N5O4 + H: 292.10403. Phosphorolysis reactions were run in 40–50 mM phosphate buffer, pH 7.0 or 6.5, and followed spectrally or fluorimetrically. Kinetic parameters were calculated by standard methods.

calf PNP = target: T1, calf PNP; experiment: Inhibition of calf PNP; type: biochemical; conditions: concentrations up to 50 μM
Experimental: as §1, §2

E. coli PNP [3] = target: T2, E. coli PNP; experiment: Fluorescence titration of E. coli PNP with ligand (enzyme-ligand complexes); type: binding; conditions: 40 mM phosphate buffer, pH 7, 20 °C; protein 11 μM per subunit
Experimental: Additionally, the fluorescence excitation spectra reveal fluorescence energy transfer (FRET) from the protein to the complexed ligand, since they show marked enhancement in the region 270–280 nm, where the tyrosine residues of the PNP molecule absorb (Figure 10).
Figure 10 Changes in fluorescence excitation (a) and emission spectra (b), observed during the titration of E. coli PNP with N^2,3-etheno-2-aminopurine (2). […] Spectra of the free ligand (3.5 μM) are given for comparison (points). Excitation spectrum of the protein, monitored at 310 nm, is given in black. Conditions: 40 mM phosphate, pH 7, at 20 °C. Concentration of protein was 10.1 μM (per subunit); that of the titrant was 0 to 3.5 μM. Lower panels: Fluorescence difference spectra, calculated from data presented on panels (a) and (b), (c) difference excitation (observed at 380 nm), (d) difference emission spectra, excited at 275 nm. Substrate concentrations are 0.17, 0.69, 1.37, 2.36 and 3.31 μM.
Etheno-tubercidine (6) forms somewhat similar fluorescent complexes with the E. coli PNP. As shown below, FRET from the protein to the ligand is evident in the excitation spectra (Figure 11), and the ligand fluorescence blue shifted from 415 to ca. 390 nm (Figure 11b,c). In this case more than 60% of protein fluorescence is quenched when protein binding sites are saturated (cf. Figure 11). […]

[4] = substrate: OC[C@H]1O[C@@H](n2ccn3c4ncnc-4cnc23)[C@H](O)[C@@H]1O; experiment: Enzymatic phosphorolysis of ribosides, calf PNP wild type; type: biochemical; conditions: other: phosphorolysis, calf PNP-wt, 40 mM phosphate buffer pH 7
Experimental: Recombinant E. coli PNP, calf spleen PNP, and their mutated forms were expressed in E. coli and purified according to the procedures described earlier. Enzyme concentrations were calculated per monomer.
as §2

Molecule | pKa [1] | Ki (E. coli PNP [2]) [µM] | inhibition of the calf PNP (calf PNP) | protein fluorescence quenched at saturation of binding sites (E. coli PNP [3]) | Km [4] [µM]
OC[C@H]1O[C@@H](n2ccc3c2ncn2ccnc32)[C@H](O)[C@@H]1O [Compound 6, 1,N^6-etheno-tubercidine] | 5.2 | ~4.5 | No inhibition | more than 60% | 
calf PNP-wt (Bos taurus) (protein, made in house; host or cells: E. coli) MANGYTYEDYQDTAKWLLSHTEQRPQVAVICGSGLGGLVNKLTQAQTFDYSEIPNFPESTVPGHAGRLVFGILNGRACVMMQGRFHMYEGYPFWKVTFPVRVFRLLGVETLVVTNAAGGLNPNFEVGDIMLIRDHINLPGFSGENPLRGPNEERFGVRFPAMSDAYDRDMRQKAHSTWKQMGEQRELQEGTYVMLGGPNFETVAECRLLRNLGADAVGMSTVPEVIVARHCGLRVFGFSLITNKVIMDYESQGKANHEEVLEAGKQAAQKLEQFVSLLMASIPVSGHTG |  |  |  |  | 4.6
